pKi: −log10 of the molar value. Where a name gives a salt, the structure may show the parent alone. Read-outs that look alike come from different tables or passages of the source.
Assays:
[1] = target: T1, human α-thrombin (Homo sapiens, UniProt P00734); test: Enzyme assay for the inhibition of thrombin (s-2238 chromogenic substrate); assay type: biochemical; details: Table I, determined graphically from Dixon plots, room temperature, pH 7.4, substrate s-2238; for pKi: read-out: Ki
T1 construct: purified human α-thrombin
Experimental: Enzyme Assays for the Inhibition of Thrombin The following reagents were used in these assays: […] Inhibitors to be tested were dissolved in H2 O, methanol, or DMSO just prior to use. To each well in a 96-well microtiter plate, 270 μl of assay buffer was added. […] The samples were incubated at room temperature for a defined period of time (3 minutes for initial IC50 determinations). The enzymatic reaction was started with 10 μl of 3 mM s-2238 substrate and continued at room temperature. The change in optical density was measured at 405 nm. A kinetic microplate reader (Molecular Devices Corporation .nu.max) was used to measure the change in optical density over time. Table I lists the Ki values for different compounds, Ki value is determined graphically from Dixon plots (plots of reciprocal enzyme velocity i/v vs. linear function of inhibitor concentration at various enzyme substrate concentrations). This methodology is well known in the art.

[2] = target: T1, human α-thrombin; test: Concentration required for doubling thrombin clotting time (clotting time assay in human plasma); assay type: biochemical; details: Table II; human citrated plasma, 10 U/ml human thrombin; read-out: DTT (concentration of drug which caused a doubling of the thrombin clotting time)
Experimental: Procedure for Determining the Concentration Required for Doubling Thrombin Clotting Time--Clotting Time Assays
The following reagents were used in these assays:
The blood was centrifugated at […]. The plasma was removed, pooled, and aliquoted into small tubes which were stored frozen for later use.
Clotting times were determined by pipetting 0.1 ml of Owren's buffer (pre-warmed to 37° C.) and 0.1 ml of human or rat plasma into yellow sample cuvettes. For studies with human plasma 10 U/ml human thrombin (10 ml) was placed in the reservoir assembly station of the MLA 700. (Medical Laboratory Automation, Electra 700 Reservoir Assembly). For rat studies, the human thrombin concentration was 25 U/ml. The cuvettes were vortexed and then placed on the MLA 700 sample wheel. The coagulation timer (MLA 700) automatically dispenses 0.1 ml human thrombin into the sample in each cuvette. Detection of the fibrin clot was determined optically by the MLA 700.
Studies were performed to determine the concentration of drug which caused a doubling of the clotting time (DTT) in human plasma.

| Structure (SMILES) | pKi [1] | IC (2-fold clotting time) [2] [µM] | Ki [1] |
| --- | --- | --- | --- |
| CN(C)c1cccc2c(S(=O)(=O)NC(CCCNC(=N)C(=N)N)C(=O)N3CCCCC3)cccc12 (stereo not drawn) [Compound 7a, 1-[5-[(2-amino-1,2-diminoethyl)amino]-2-[[[5-(dimethylamino)-1-naphthalene]amino]-1-oxopentyl]piperidine hydrochloride] | 5.49 |  |  |
| CC1CCN(C(=O)C(CCNC(=N)C(=N)N)NS(=O)(=O)c2cccc3c(N(C)C)cccc23)CC1 (stereo not drawn) [Compound 7b] | 5.40 |  |  |
| CC1CCN(C(=O)C(CCCNC(=N)C(=N)N)NS(=O)(=O)c2cccc3c(N(C)C)cccc23)CC1 (stereo not drawn) [Compound 7c, 1-[5-[(2-amino-1,2-diiminoethyl)amino]-2-[[[5-(dimethylamino)-1-naphthalenyl]sulfonyl]amino]-1-oxopentyl]-4-methylpiperidine trihydrochloride hydrate] | 6.48 |  |  |
| CCC1CCN(C(=O)C(CCCNC(=N)C(=N)N)NS(=O)(=O)c2cccc3c(N(C)C)cccc23)CC1 (stereo not drawn) [Compound 7d, 1-[5-[(2-amino-1,2-diiminoethyl)amino]-2-[[[5-(dimethylamino)-1-naphthalenyl]sulfonyl]amino]-1-oxopentyl]-4-ethylpiperidine trihydrochloride hydrate] | 6.52 |  |  |
| CN(C)c1cccc2c(S(=O)(=O)NC(CCCNC(=N)C(=N)N)C(=O)N3CCOCC3)cccc12 (stereo not drawn) [Compound 7e, 1-[5-[(2-amino-1,2-diiminoethyl)amino]-2-[[[5-(dimethylamino)-1-naphthalenyl]sulfonyl]amino]-1-oxopentyl]morpholine trihydrochloride hydrate] | 5.70 | 4 |  |
| CCCCN(CC(=O)OCC)C(=O)C(CCCNC(=N)C(=N)N)NS(=O)(=O)c1cccc2c(N(C)C)cccc12 (stereo not drawn) [Compound 7f, ethyl N-[5-[(2-amino-1,2-diiminoethyl)amino]-2-[[[5-(dimethylamino)-1-naphthalenyl]sulfonyl]amino]-1-oxopentyl]-N-butylglycinate trihydrochloride hydrate] | 5.52 |  |  |
| CN(C)c1cccc2c(S(=O)(=O)NC(CCCNC(=N)C(=N)N)C(=O)N3CCCCCC3)cccc12 (stereo not drawn) [Compound 7g, 1-[5-(2-amino-1,2-diiminoethyl)amino]-2-[[[5-(dimethylamino)-1-naphthalenyl]sulfonyl]amino]-1-oxopentyl]homopiperidine trihydrochloride hydrate] | 6.40 | 1.8 |  |
| Cc1ccc(S(=O)(=O)NC(CNC(=N)C(=N)N)C(=O)N2CCCCC2)cc1 (stereo not drawn) [Compound 7h] |  | > 300 | insol. |
| Cc1ccc(S(=O)(=O)NC(CCNC(=N)C(=N)N)C(=O)N2CCCCC2)cc1 (stereo not drawn) [Compound 7i] | 4.10 |  |  |
| Cc1ccc(S(=O)(=O)NC(CCCNC(=N)C(=N)N)C(=O)N2CCCCC2)cc1 (stereo not drawn) [Compound 7j] | 4.80 |  |  |
| Cc1ccc(S(=O)(=O)NC(CCCCNC(=N)C(=N)N)C(=O)N2CCCCC2)cc1 (stereo not drawn) [Compound 7k, 1-[6-[(2-amino-1,2-diiminoethyl)aminol]-2-[[(4-methylphenyl)sulfonyl]amino]-1-oxohexyl]piperidine dihydrochloride] | 4.26 | 150 |  |
| Cc1ccc(S(=O)(=O)NC(CCCNC(=N)C(=N)N)C(=O)N2CCC(C)CC2)cc1 (stereo not drawn) [Compound 7l, 1-[5-[2-(amino-1,2-diiminoethyl)amino]-2-[[(4-methylphenyl)sulfonyl]amino]-1-oxopentyl]-4-methylpiperidine hydrochloride] | 4.74 |  |  |
| N=C(N)C(=N)NCCC(NC(=O)CNS(=O)(=O)c1ccc2ccccc2c1)C(=O)N1CCCCC1 (stereo not drawn) [Compound 7m] | 4.44 |  |  |
| N=C(N)C(=N)NCCCC(NC(=O)CNS(=O)(=O)c1ccc2ccccc2c1)C(=O)N1CCCCC1 (stereo not drawn) [Compound 7n] | < 4.30 |  |  |
